Reference: patent US10450356B2, “PRAME derived peptides and immunogenic compositions comprising these” (Academisch Ziekenhuis Leiden H.O.D.N. LUMC, priority 2007, dated 2019)
Marks after values point to notes of the source that are not given here.

Target: T1, 20S proteasomes purified from a B-LCL cell line (immunoproteasomes) (Homo sapiens, UniProt P28062+P28065+P40306)
T1 construct: 20S proteasomes were purified from a B-LCL cell line; endogenous in cells; purified after Groettrup et al. 1995
Assay: In vitro proteasome mediated cleavage analysis
Format: biochemical
Parameters: key to Intact in fragment / Intact Fragment: intact epitope found in digestion fragments: (+), present; (-), not present; key to Processing C-term: generation by proteasome-mediated digestion of fragments containing the correct C-terminus: (++) fragments present for >5%; (+) present for <5%; (-) no fragments containing the C-term. were found
Details: for Processing C-term: generation by proteasome-mediated digestion of fragments containing the correct C-terminus: 1 h digestion; for Intact Fragment: intact epitope found in digestion fragments: after 1 h digestion; for C-term. generation: generation of C-terminus of the epitope after 1 h digestion; for Intact in fragment: intact epitope found in digestion fragments after 1 h digestion
Protocol: 20S proteasomes were purified from a B-LCL cell line as described by Groettrup et al. (J. Biol. Chem. 270:23808-23815; 1995). This cell type is known to contain immunoproteasomes. High LMP2 and 7 content was confirmed by 2-D immuno-blotting. To assess kinetics, digestions were performed with different incubation periods. Peptides (27 mers, 20 μg) were incubated with 1 μg of purified proteasome at 37° C. for 1 h, 4 h and 24 h in 300 μl proteasome digestion buffer as described (Eggers, et al. 1995. J. Exp. Med. 182:1865). Trifluoroacetic acid was added to stop the digestion and samples were stored at −20° C. before mass spectrometric analysis.
Electrospray ionization mass spectrometry was performed on a hybrid quadrupole time-of-flight mass spectrometer, a Q-TOF (Micromass), equipped with an on-line nanoelectrospray interface with an approximate flow rate of 250 nL/min. Injections were done with a dedicated micro/nano HPLC autosampler, the FAMOS (LC Packings). Digestion solutions were diluted five times in water-methanol-acetic acid (95:5:1, v/v/v), and trapped on the precolumn (MCA-300-05-C8; LC Packings) in water-methanol-acetic acid (95:5:1, v/v/v). Washing of the precolumn was done for 3 min to remove the buffers present in the digests. Subsequently, the trapped analytes were eluted with a steep gradient going from 70% B to 90% B in 10 min, with a flow of 250 nl/min (A: water-methanol-acetic acid (95:5:1, v/v/v); B: water-methanol-acetic acid (10:90:1, v/v/v)). This low elution rate allows for a few additional MS/MS experiments if necessary during the same elution. Mass spectra were recorded from mass 50-2000 Da every second. The resolution allows direct determination of the monoisotopic mass, also from multiple charged ions. The peaks in the mass spectrum were searched in the digested precursor peptide using the Biolynx/proteins software (Micromass). The intensity of the peaks in the mass spectra was used to establish the relative amounts of peptides generated by proteasome digestion.

CC(C)C[C@H](NC(=O)[C@@H](NC(=O)[C@H](CC(N)=O)NC(=O)[C@H](CCCCN)NC(=O)[C@H](CCCCN)NC(=O)[C@H](CCCNC(=N)N)NC(=O)[C@H](CCCCN)NC(=O)[C@@H](NC(=O)[C@@H](N)CCCCN)C(C)C)C(C)C)C(=O)N[C@@H](CCCNC(=N)N)C(=O)O
Processing C-term: generation by proteasome-mediated digestion of fragments containing the correct C-terminus: - | Intact Fragment: intact epitope found in digestion fragments: -

CC(C)C[C@H](NC(=O)[C@H](CC(C)C)NC(=O)[C@H](CCC(=O)O)NC(=O)[C@H](CCCNC(=N)N)NC(=O)[C@H](CC(C)C)NC(=O)[C@H](CCCNC(=N)N)NC(=O)[C@H](C)NC(=O)[C@H](Cc1c[nH]cn1)NC(=O)[C@H](CC(C)C)NC(=O)[C@@H](N)Cc1ccc(O)cc1)C(=O)O
Processing C-term: generation by proteasome-mediated digestion of fragments containing the correct C-terminus: + ((+) present for <5%) | Intact Fragment: intact epitope found in digestion fragments: + | C-term. generation: + (low abundant (+) present for <5%) | Intact in fragment: +

CC(C)C[C@H](NC(=O)[C@H](C)NC(=O)[C@H](CCC(N)=O)NC(=O)[C@H](CC(C)C)NC(=O)[C@H](CS)NC(=O)[C@H](CCC(N)=O)NC(=O)[C@H](CC(C)C)NC(=O)[C@H](CO)NC(=O)[C@@H](N)CC(C)C)C(=O)N[C@@H](Cc1ccc(O)cc1)C(=O)O
Processing C-term: generation by proteasome-mediated digestion of fragments containing the correct C-terminus: - | Intact Fragment: intact epitope found in digestion fragments: -

CC[C@H](C)[C@H](NC(=O)[C@H](CCSC)NC(=O)[C@H](CCC(N)=O)NC(=O)CNC(=O)[C@H](CC(C)C)NC(=O)[C@H](Cc1ccc(O)cc1)NC(=O)[C@@H]1CCCN1)C(=O)N[C@@H](CC(N)=O)C(=O)N[C@@H](CC(C)C)C(=O)O
Processing C-term: generation by proteasome-mediated digestion of fragments containing the correct C-terminus: +^(k) ((+) present for <5%) | Intact Fragment: intact epitope found in digestion fragments: + | Intact in fragment: +

CC(C)C[C@H](NC(=O)[C@H](Cc1ccccc1)NC(=O)[C@H](Cc1ccccc1)NC(=O)[C@H](CC(C)C)NC(=O)[C@H](CO)NC(=O)[C@H](CC(=O)O)NC(=O)[C@@H](NC(=O)[C@@H](N)Cc1ccc(O)cc1)C(C)C)C(=O)N[C@@H](CCCNC(=N)N)C(=O)O
Processing C-term: generation by proteasome-mediated digestion of fragments containing the correct C-terminus: + ((+) present for <5%) | Intact Fragment: intact epitope found in digestion fragments: -

CC(C)C[C@H](NC(=O)[C@@H]1CCCN1C(=O)[C@H](CCC(=O)O)NC(=O)[C@@H]1CCCN1C(=O)[C@H](CO)NC(=O)[C@@H](NC(=O)[C@H](CC(=O)O)NC(=O)[C@@H](NC(=O)[C@@H](N)CC(C)C)[C@@H](C)O)C(C)C)C(=O)N[C@@H](CCC(N)=O)C(=O)N[C@@H](C)C(=O)O
Processing C-term: generation by proteasome-mediated digestion of fragments containing the correct C-terminus: + ((+) present for <5%) | Intact Fragment: intact epitope found in digestion fragments: + | C-term. generation: + (low abundant (+) present for <5%) | Intact in fragment: +

C[C@@H](O)[C@H](NC(=O)[C@H](CCCNC(=N)N)NC(=O)[C@H](CC(=O)O)NC(=O)CNC(=O)[C@H](CS)NC(=O)[C@H](Cc1c[nH]cn1)NC(=O)[C@@H]1CCCN1C(=O)[C@@H](N)CS)C(=O)N[C@@H](Cc1ccccc1)C(=O)N[C@@H](Cc1ccc(O)cc1)C(=O)O
Processing C-term: generation by proteasome-mediated digestion of fragments containing the correct C-terminus: - | Intact Fragment: intact epitope found in digestion fragments: -

CC(C)C[C@H](NC(=O)[C@H](CCCNC(=N)N)NC(=O)[C@H](C)NC(=O)[C@H](Cc1c[nH]cn1)NC(=O)[C@H](CC(C)C)NC(=O)[C@H](Cc1ccc(O)cc1)NC(=O)[C@H](C)NC(=O)[C@H](CC(C)C)NC(=O)[C@@H](N)CCCNC(=N)N)C(=O)O
Processing C-term: generation by proteasome-mediated digestion of fragments containing the correct C-terminus: ++ ((++) fragments present for >5%) | Intact Fragment: intact epitope found in digestion fragments: + | C-term. generation: ++ (abundant (++) present for >5%) | Intact in fragment: +

CC[C@H](C)[C@H](NC(=O)[C@H](CCSC)NC(=O)[C@H](CCC(N)=O)NC(=O)CNC(=O)[C@H](CC(C)C)NC(=O)[C@H](Cc1ccc(O)cc1)NC(=O)[C@@H]1CCCN1C(=O)[C@H](CO)NC(=O)[C@H](Cc1ccccc1)NC(=O)[C@@H](N)CCCCN)C(=O)O
Processing C-term: generation by proteasome-mediated digestion of fragments containing the correct C-terminus: - | Intact Fragment: intact epitope found in digestion fragments: -

CC(C)C[C@H](NC(=O)[C@H](Cc1ccccc1)NC(=O)[C@H](Cc1ccccc1)NC(=O)[C@H](CC(C)C)NC(=O)[C@H](CO)NC(=O)[C@H](CC(=O)O)NC(=O)[C@@H](NC(=O)[C@H](Cc1ccc(O)cc1)NC(=O)[C@@H](N)CC(C)C)C(C)C)C(=O)O
Processing C-term: generation by proteasome-mediated digestion of fragments containing the correct C-terminus: ++ ((++) fragments present for >5%) | Intact Fragment: intact epitope found in digestion fragments: + | C-term. generation: ++ (abundant (++) present for >5%) | Intact in fragment: +

CC(C)C[C@H](NC(=O)[C@H](CC(C)C)NC(=O)[C@H](CC(C)C)NC(=O)[C@H](CCCNC(=N)N)NC(=O)[C@H](CCCNC(=N)N)NC(=O)[C@H](CC(C)C)NC(=O)[C@@H](N)CC(N)=O)C(=O)N[C@@H](CO)C(=O)N[C@@H](Cc1c[nH]cn1)C(=O)O
Processing C-term: generation by proteasome-mediated digestion of fragments containing the correct C-terminus: - | Intact Fragment: intact epitope found in digestion fragments: -

CC[C@H](C)[C@H](NC(=O)[C@H](CC(C)C)NC(=O)[C@@H](N)Cc1ccc(O)cc1)C(=O)N[C@@H](CCC(=O)O)C(=O)N[C@@H](CCCCN)C(=O)N[C@H](C(=O)N[C@@H](CCCCN)C(=O)N[C@@H](CCCNC(=N)N)C(=O)N[C@@H](CCCCN)C(=O)O)C(C)C
Processing C-term: generation by proteasome-mediated digestion of fragments containing the correct C-terminus: - | Intact Fragment: intact epitope found in digestion fragments: -

CSCC[C@H](NC(=O)[C@@H](NC(=O)[C@H](CC(=O)O)NC(=O)CNC(=O)[C@H](CCC(=O)O)NC(=O)[C@H](CO)NC(=O)[C@H](CC(C)C)NC(=O)[C@@H](N)CCCNC(=N)N)C(C)C)C(=O)N[C@@H](Cc1c[nH]cn1)C(=O)N[C@@H](CC(C)C)C(=O)O
C-term. generation: + (low abundant (+) present for <5%) | Intact in fragment: +

CC(C)C[C@H](NC(=O)CNC(=O)[C@H](CC(=O)O)NC(=O)[C@H](CC(C)C)NC(=O)[C@@H](NC(=O)[C@H](C)NC(=O)[C@H](CCCCN)NC(=O)[C@H](Cc1ccccc1)NC(=O)[C@@H](N)[C@@H](C)O)C(C)C)C(=O)O
Processing C-term: generation by proteasome-mediated digestion of fragments containing the correct C-terminus: - | Intact Fragment: intact epitope found in digestion fragments: -

CC(C)C[C@H](NC(=O)[C@@H](NC(=O)CNC(=O)[C@H](CC(C)C)NC(=O)[C@@H]1CCCN1C(=O)[C@H](CC(C)C)NC(=O)[C@H](CS)NC(=O)[C@@H](NC(=O)[C@H](Cc1ccccc1)NC(=O)[C@@H]1CCCN1)[C@@H](C)O)C(C)C)C(=O)O
Processing C-term: generation by proteasome-mediated digestion of fragments containing the correct C-terminus: ++ ((++) fragments present for >5%) | Intact Fragment: intact epitope found in digestion fragments: + | C-term. generation: ++ (abundant (++) present for >5%) | Intact in fragment: +

CC(C)C[C@H](NC(=O)[C@@H](NC(=O)[C@@H]1CCCN1C(=O)[C@H](CC(C)C)NC(=O)[C@H](CCCCN)NC(=O)[C@H](Cc1c[nH]c2ccccc12)NC(=O)[C@@H](NC(=O)[C@@H](N)CS)[C@@H](C)O)[C@@H](C)O)C(=O)N[C@@H](C)C(=O)N[C@@H](CCCCN)C(=O)O
Processing C-term: generation by proteasome-mediated digestion of fragments containing the correct C-terminus: - | Intact Fragment: intact epitope found in digestion fragments: -

CC[C@H](C)[C@H](NC(=O)[C@H](CO)NC(=O)[C@@H](NC(=O)[C@H](CO)NC(=O)[C@H](CC(N)=O)NC(=O)CNC(=O)[C@H](Cc1ccc(O)cc1)NC(=O)[C@H](Cc1ccccc1)NC(=O)[C@@H](N)CO)[C@@H](C)CC)C(=O)O
Processing C-term: generation by proteasome-mediated digestion of fragments containing the correct C-terminus: ++ ((++) fragments present for >5%) | Intact Fragment: intact epitope found in digestion fragments: + | C-term. generation: ++ (abundant (++) present for >5%) | Intact in fragment: +

CC(C)C[C@H](NC(=O)[C@H](CCC(=O)O)NC(=O)[C@H](CC(=O)O)NC(=O)[C@H](CS)NC(=O)[C@H](C)NC(=O)CNC(=O)[C@H](CCC(=O)O)NC(=O)[C@H](CCCCN)NC(=O)[C@H](CC(C)C)NC(=O)[C@@H](N)Cc1ccccc1)C(=O)O
Processing C-term: generation by proteasome-mediated digestion of fragments containing the correct C-terminus: - | Intact Fragment: intact epitope found in digestion fragments: -

CC[C@H](C)[C@H](NC(=O)[C@H](C)NC(=O)[C@H](CC(C)C)NC(=O)[C@H](C)NC(=O)[C@H](CCC(=O)O)NC(=O)[C@H](CC(=O)O)NC(=O)[C@H](CCCCN)NC(=O)[C@H](CC(C)C)NC(=O)[C@H](CC(C)C)NC(=O)[C@@H](N)CO)C(=O)O
Processing C-term: generation by proteasome-mediated digestion of fragments containing the correct C-terminus: ++ ((++) fragments present for >5%) | Intact Fragment: intact epitope found in digestion fragments: + | C-term. generation: ++ (abundant (++) present for >5%) | Intact in fragment: +
